Source: patent US11312723B2, “Pyranopyrazole and pyrazolopyridine immunomodulators for treatment of autoimmune diseases” (The Rockefeller University, priority 2017, dated 2022)

Experiments:
Human FXIIa = Human FXIIa (Homo sapiens (Human), UniProt P00748); test: Factor XIIa (FXIIa) inhibitory activity, chromogenic substrate (Pefachrome XIIa) cleavage; type: biochemical; conditions: 10 min pre-incubation, Pefachrome XIIa 400 μM
Human alpha-thrombin = Human alpha-thrombin (Homo sapiens (Human), UniProt P00734); test: Thrombin counterscreen for selectivity, fluorogenic substrate cleavage; type: biochemical; conditions: 10 min pre-incubation, Boc-Val-Pro-Arg-AMC 20 μM
[1] = tested on: Collagen-Induced Arthritis (CIA) in DBA/1 Mice; test: Collagen-Induced Arthritis (CIA) in DBA/1 mice, model of rheumatoid arthritis; type: in vivo, mouse
Description: For in vivo confirmation of efficacy, Example 35 was studied in a model of rheumatoid arthritis. Collagen-Induced Arthritis (CIA) in DBA/1 Mice is one of the most commonly used animal models of human rheumatoid arthritis. The joint inflammation which develops in CIA resembles inflammation in human patients with rheumatoid arthritis. Therapeutic agents that reduce rheumatoid arthritis in people (e.g. NSAIDs, corticosteroids, methotrexate, etc) are also efficacious in CIA, and efficacy in the mouse CIA model has excellent predictive value for efficacy in rheumatoid arthritis. CIA is induced by immunization with type II collagen emulsified in Complete Freund's Adjuvant, followed by a booster immunization with type II collagen emulsified in incomplete Freund's Adjuvant. Three to four weeks after immunization, inflammation develops in mouse paws, Treatment is initiated at, the time of immunization and continues for 6 weeks. […] CIA is scored blind, by a person unaware of both treatment and of previous scores for each animal. The animal's score is the total of all four paw scores on scale of 0-16, where each paw is scored as follows: 0 Normal paw; 1 One toe inflamed and swollen; 2 More than one toe, but not entire paw, inflamed and swollen, or mild swelling of entire paw; 3 Entire paw inflamed and swollen; 4 Very inflamed and swollen paw or ankylosed paw.

Human FXIIa, sequence (P00748 373-615): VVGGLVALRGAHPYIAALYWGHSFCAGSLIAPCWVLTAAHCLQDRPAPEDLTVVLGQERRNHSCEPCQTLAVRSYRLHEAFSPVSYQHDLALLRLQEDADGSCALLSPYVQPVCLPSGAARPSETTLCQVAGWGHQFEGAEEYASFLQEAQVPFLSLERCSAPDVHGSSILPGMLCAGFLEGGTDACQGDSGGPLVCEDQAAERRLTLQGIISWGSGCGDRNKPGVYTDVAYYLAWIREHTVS
Human FXIIa, sequence (P00748 20-372 partner): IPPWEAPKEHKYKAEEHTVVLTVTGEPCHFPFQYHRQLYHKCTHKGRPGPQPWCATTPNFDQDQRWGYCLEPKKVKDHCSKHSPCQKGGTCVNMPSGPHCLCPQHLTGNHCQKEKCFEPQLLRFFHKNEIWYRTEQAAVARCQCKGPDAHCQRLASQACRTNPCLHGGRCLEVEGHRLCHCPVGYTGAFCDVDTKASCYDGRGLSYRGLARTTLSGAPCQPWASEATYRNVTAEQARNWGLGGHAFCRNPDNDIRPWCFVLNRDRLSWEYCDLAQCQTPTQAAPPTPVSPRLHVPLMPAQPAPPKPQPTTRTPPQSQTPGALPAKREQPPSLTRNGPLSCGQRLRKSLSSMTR

IC50 (Human FXIIa): 0.02 µM
IC50 (Human alpha-thrombin): 18 µM
SMILES: Cc1cccc2c1NCCC2C(=O)n1nc2c(c1N)CCN(S(C)(=O)=O)C2 (single isomer, unassigned) [Example 35, (S*)-(3-amino-6-(methylsulfonyl)-4,5,6,7-tetrahydropyrazolo[3,4-c]pyridine-2-yl)(8-methyl-1,2,3,4-tetrahydroquinolin-4-yl)methanone]
Effect on disease phenotype compared to placebo ([1]; CIA model): significantly ameliorated the disease phenotype compared to placebo
Maximum CIA score ± SD ([1]; scale 0-16, p value 0.0175 vs vehicle): 5.6 ± 3.7
